Experimental findings from patent US12593846B2, “Combinations of triazolone herbicides with safeners” (priority 2020, dated 2026) are described below.

What all share (type): in vivo
The subject of one data set is Brachiaria decumbens. As to the kind of experiment: % weed control in soybean crop, spray application to soil. The conditions noted are these: average of 4 replications; for % Weed Control 7 DAA: 7 days after administration; for % Weed Control 14 DAA: 14 days after administration; for % Weed Control 21 DAA: 21 days after administration; for % Weed Control 28 DAA: 28 days after administration; for % Weed Control 35 DAA: 35 days after administration. More on the design: concentration or dose not given beside the values. From the text:
(§1) Below table gives summary of the formulation details and application details of Sulfentrazone and Mefenpyr-diethyl, Isoxadifen-ethyl and Cloquintocet-mexyl that were used in combination with Sulfentrazone for treatments. Application method was spray and applications were made to soil.
(§2) Below table gives summary of the formulation details and application details of Sulfentrazone and Dichlormid, Fenclorim, Benoxacor, Flurazole and Fluxofenim that were used in combination with Sulfentrazone for treatments. Application method was spray and applications were made to soil.
Below table gives summary of % weed control shown in soybean crop by untreated check, Sulfentrazone alone and combination of Sulfentrazone with Mefenpyr-diethyl, Isoxadifen-ethyl and Cloquintocet-mexyl at different application rates. % weed control was checked for weed Brachiaria decumbens.
Below table gives summary of % weed control in soybean crop shown by untreated check, Sulfentrazone alone and combination of Sulfentrazone with Dichlormid, Fenclorim, Benoxacor, Flurazole and Fluxofenim at different application rates. % weed control was checked for weed Brachiaria decumbens.

The test system of the next data set is soybean plants. In words: Number of soybean plants standing after herbicidal treatment. The conditions noted are these: average of 4 replications; for Number of plants standing 14 DAA: 14 days after administration; for Number of plants standing 28 DAA: 28 days after administration. Here is the method:
(§3) Experiments were carried out to evaluate the phytotoxicity, effect on plant height and effect on number of plants standing after treatments with combinations of one or more triazolone herbicides with one or more safeners.
as §1, §2
Below table gives summary of effect on number of soybean plants standing after herbicidal treatment shown by untreated check, Sulfentrazone alone and combination of Sulfentrazone with Mefenpyr-diethyl, Isoxadifen-ethyl and Cloquintocet-mexyl at different application rates.
Below table gives summary of effect on number of soybean plants standing after herbicidal treatment shown by untreated check, Sulfentrazone alone and combination of Sulfentrazone with Dichlormid, Fenclorim, Benoxacor, Flurazole and Fluxofenim at different application rates.

For another data set, the system named is soybean plant. As to the kind of experiment: Effect on plant height of soybean plant. The conditions noted are these: average of 4 replications; for Plant height 14 DAA: 14 days after administration; for Plant height 28 DAA: 28 days after administration. Here is the method: as §3, §1, §2
Below table gives summary of effect on plant height of soybean plant shown by untreated check, Sulfentrazone alone and combination of Sulfentrazone with Mefenpyr-diethyl, Isoxadifen-ethyl and Cloquintocet-mexyl at different application rates.
Below table gives summary of effect on plant height of soybean plant shown by untreated check, Sulfentrazone alone and combination of Sulfentrazone with Dichlormid, Fenclorim, Benoxacor, Flurazole and Fluxofenim at different application rates.

The mark [1] stands for this setting: treatments 1-8 (rates in Table 1).
The mark [2] stands for this setting: treatments 9-20 (rates in Table 2).

Regarding `Cc1nn(-c2cc(NS(C)(=O)=O)c(Cl)cc2Cl)c(=O)n1C(F)F` [Treatment 2], in the data set on Brachiaria decumbens (setting [1]), the “% Weed Control 7 DAA” value was determined as 100%, the “% Weed Control 14 DAA” value came to 100%, the “% Weed Control 21 DAA” value was 100% and the “% Weed Control 28 DAA” value turned out to be 100%. Further, the “% Weed Control 35 DAA” value in the data set on Brachiaria decumbens (setting [1]) was 100%. Further, in the data set with soybean plants (setting [1]), the “Number of plants standing 14 DAA” value amounted to 5.3 and the “Number of plants standing 28 DAA” value amounted to 4.5. Moreover, in the data set with soybean plant (setting [1]), the “Plant height 14 DAA” value stood at 2.90 and the “Plant height 28 DAA” value came to 5.15.

As for `Cc1nn(-c2cc(NS(C)(=O)=O)c(Cl)cc2Cl)c(=O)n1C(F)F` [Treatment 10], in the data set on Brachiaria decumbens (setting [2]), the “% Weed Control 7 DAA” value is 100%, the “% Weed Control 14 DAA” value is 100%, the “% Weed Control 21 DAA” value worked out at 100% and the “% Weed Control 28 DAA” value came to 100%. Besides, the “% Weed Control 35 DAA” value in the data set on Brachiaria decumbens (setting [2]) worked out at 100%. Moreover, in the data set with soybean plants (setting [2]), the “Number of plants standing 14 DAA” value is 5.3 and the “Number of plants standing 28 DAA” value was 5.3. In the data set with soybean plant (setting [2]), the “Plant height 14 DAA” value is recorded as 6.65 and the “Plant height 28 DAA” value was 10.90.
